Test results reported in article PMC10937556, “Phenolic phytochemistry, in vitro, in silico, in vivo, and mechanistic anti-inflammatory and antioxidant evaluations of Habenaria digitata” (Frontiers in Pharmacology, 2024).

What was measured:
[1] = H2O2 free radical scavenging activity
Protocol: The antioxidant potential of isolated compounds was determined using this approach. In a phosphate buffer solution (50 mM, pH 7.40), a solution of H2O2 (2 mM) was produced. The crude extract (0.10 mL) was measured in a test tube and diluted to 0.40 mL using phosphate buffer. Thereafter, H2O2 (0.60 mL) was added and thoroughly mixed. […] 230 nm was used to measure the absorbance of the sample and the standard ([Sadiq et al., 2018]). For all the crude samples, the exact process was followed. According to the procedure, the inhibition percentage and IC50 values were computed.

[2] = ABTS free radical scavenging assay
Protocol: The ABTS anti-radicals’ analysis was carried out according to [Shah et al. (2015)]. The ABTS solution was prepared by dissolving ABTS salt (192 mg) in distilled H2O, transferred to a flask (50 mL), and volume was adjusted. Thereafter, 1 mL of the preceding solution was added to 17 µL of K₂S₂O₈ (140 mM) and placed in the dark for 24 h s. The experiment’s ultimate ABTS dilution was achieved by mixing 1 mL of the reaction mixture with 50 mL of methanol. The ABTS solution (190 µL) was mixed with the sample solution (10 µL) and added to 96-well plates, which were then incubated at room temperature in dark for 2 h. Following incubation, the measurement of ABTS color intensity was conducted using a microplate reader at 734 nm. Positive control solutions were prepared at values of 1,000–62.5 µM. The percentage of ABTS scavenging was determined by using the following equation: % ABTS scavenging=Control−Sample/control×100.

5-LOX = target: T1, 5-LOX (Homo sapiens, UniProt P09917); test: 5-Lipoxygenase (5-LOX) inhibition assay; type: biochemical; details: for inhibition at 62.5 µg/mL: 62.50 μg/mL; for inhibition at 62.5 µg/mL / inhibition at 125 µg/mL / inhibition at 250 µg/mL / inhibition at 500 µg/mL / inhibition at 1000 µg/mL: read-out: % 5-LOX inhibitions; for inhibition at 1000 µg/mL: 1,000 µg/mL; for % 5-LOX inhibitions: 1,000 μg/mL
T1 construct: purchased Sigma-Aldrich (local distributor) 437996
T1 sequence (P09917 1-674): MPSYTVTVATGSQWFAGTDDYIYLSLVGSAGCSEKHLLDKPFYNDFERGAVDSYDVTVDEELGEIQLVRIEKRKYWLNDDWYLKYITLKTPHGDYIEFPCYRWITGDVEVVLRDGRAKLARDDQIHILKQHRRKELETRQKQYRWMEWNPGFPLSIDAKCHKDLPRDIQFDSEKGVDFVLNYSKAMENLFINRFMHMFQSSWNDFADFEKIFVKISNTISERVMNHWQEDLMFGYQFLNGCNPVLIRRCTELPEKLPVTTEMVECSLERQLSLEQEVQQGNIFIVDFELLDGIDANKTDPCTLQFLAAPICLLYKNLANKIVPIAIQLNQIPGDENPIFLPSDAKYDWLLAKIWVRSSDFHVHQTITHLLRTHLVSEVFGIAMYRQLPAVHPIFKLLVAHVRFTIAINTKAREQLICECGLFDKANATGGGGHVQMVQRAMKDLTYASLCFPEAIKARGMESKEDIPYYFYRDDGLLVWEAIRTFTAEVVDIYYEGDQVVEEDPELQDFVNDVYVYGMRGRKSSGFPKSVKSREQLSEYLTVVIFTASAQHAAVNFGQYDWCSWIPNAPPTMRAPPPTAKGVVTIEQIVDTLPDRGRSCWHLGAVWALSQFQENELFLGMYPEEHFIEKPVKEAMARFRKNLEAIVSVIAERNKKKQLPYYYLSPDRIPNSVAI
Protocol: The 5-LOX inhibitory experiments on H. digitata samples were carried out as per published protocol ([Pervaiz et al., 2022]). Several concentrations of plant samples were made, with concentrations ranging from 31.25 to 1,000 μg/mL. Thereafter, 5-LOX was primed with 10,000 U/mL solutions. Linoleic acid (80 mM) was used as the substrate. Likewise, 50 mM phosphate buffer with a pH of 6.3 was primed. Plant samples of varied quantities were dissolved in 250 µL of phosphate buffer, and then, 250 µL of the lipoxygenase enzyme solution was added and incubated for 5 min at room temperature. A volume of 1,000 µL of the substrate solution with a concentration of 0.6 mM was added to the enzyme solution and shaken. The absorbance at 234 nm was observed. All of the tests were conducted three times. In this test, zileuton served as a positive control. The percentage inhibition was determined using the following equation: Percentage Inhibition=Control Abs. −Sample Abs. /Control Abs. ×100.
The IC50 values were derived by plotting the inhibitions against the concentrations of the tested sample solution.

[3] = DPPH free radical scavenging assay
Protocol: The DPPH (anti-radicals) investigation was carried out according to our earlier reported protocols. Initially, a methanolic DPPH solution was prepared with a concentration of 0.1%. Subsequently, 100 µL of this solution was mixed with an equal volume of the test samples (100 µL) in 96-well plates, following a 30-min incubation period at 25°C ± 3 °C in the dark. Solutions with concentrations ranging from […] were prepared. Five concentrations of 1,000, 500, 250, 125, and 62.5 µM of the Trolox methanolic solution ([…]) were formed. A color reduction in DPPH was observed after incubation; a microplate reader was used, and absorbance was measured at 540 nm ([Mahnashi et al., 2022a]; [Huneif et al., 2022]). The percentage of scavenging was determined by the formula: Scavenging effect %=control absorbance−sample absorbance/control absorbance×100.

SMILES	H2O2 IC50 [1]	H2O2 % inhibition ([1]; 62.5 µg/mL)	H2O2 % inhibition ([1]; 125 µg/mL)	H2O2 % inhibition ([1]; 250 µg/mL)	H2O2 % inhibition ([1]; 500 µg/mL)	H2O2 % inhibition ([1]; 1,000 µg/mL)	ABTS IC50 [2]	ABTS % inhibition ([2]; 62.5 µg/mL)	ABTS % inhibition ([2]; 125 µg/mL)	ABTS % inhibition ([2]; 250 µg/mL)	ABTS % inhibition ([2]; 500 µg/mL)	ABTS % inhibition ([2]; 1,000 µg/mL)	IC50 (5-LOX)	inhibition at 62.5 µg/mL (5-LOX)	inhibition at 125 µg/mL (5-LOX)	inhibition at 250 µg/mL (5-LOX)	inhibition at 500 µg/mL (5-LOX)	inhibition at 1000 µg/mL (5-LOX)	DPPH IC50 [3]	DPPH % inhibition ([3]; 62.5 µg/mL)	further results
Cc1cnc(O)nc1O [Compound 1, 5-methylpyrimidine-24,4-diol]	05 µg/mL	69.91 ± 1.30 ^ns %	71.76 ± 0.61 ^ns %	76.87 ± 1.27 ^ns %	81.13 ± 0.20^ns %	85.20 ± 0.23^ns %	0.98 µg/mL	75.90 ± 0.48 %	79.03 ± 0.48 %	84.90 ± 0.96 %	87.65 ± 1.34 %	91.58 ± 1.12 %	58.7 µM	65.68 ± 0.64%	71.42 ± 0.46%	76.53 ± 0.41%	82.45 ± 0.55%	87.63 ± 0.64%	0.90 µg/mL	75.00 ± 1.15 %	DPPH % inhibition ([3]; 125 µg/mL): 78.67 ± 0.89 %; DPPH % inhibition ([3]; 250 µg/mL): 83.00 ± 0.58 %; DPPH % inhibition ([3]; 500 µg/mL): 87.03 ± 0.23 %; DPPH % inhibition ([3]; 1,000 µg/mL): 93.33 ± 0.49 %
CC1=C(O)C(=O)C(O)CO1 (centres unmarked) [Compound 2, 3,5-dihydroxy-6-methyl-2,3-dihydro-4H-pyran-4-one]	06 µg/mL	67.90 ± 1.16 ^ns %	71.34 ± 0.55 ^ns %	75.36 ± 0.49 ^ns %	80.39 ± 0.49 ^ns %	86.39 ± 0.60 ^ns %	03 µg/mL	68.52 ± 0.38 %	72.64 ± 0.16 %	77.61 ± 1.70 %	81.94 ± 0.45 %	86.47 ± 0.22 %	73.9 µM	61.35 ± 0.18%	66.2 ± 0.15%	73.42 ± 0.11%	78.62 ± 0.17%	83.53 ± 0.2%	04 µg/mL	72.74 ± 0.61 %	DPPH % inhibition ([3]; 125 µg/mL): 76.54 ± 0.50 %; DPPH % inhibition ([3]; 250 µg/mL): 81.48 ± 0.64 %; DPPH % inhibition ([3]; 500 µg/mL): 86.86 ± 0.60 %; DPPH % inhibition ([3]; 1,000 µg/mL): 91.62 ± 0.74 %
Cc1ccc(C(C)C)c(O)c1 [Compound 3, 2-isopropyl-5-methylphenol]	33 µg/mL	58.74 ± 0.68 %	62.70 ± 1.25 %	67.05 ± 0.75 %	72.32 ± 1.06 %	77.34 ± 0.98 %	21 µg/mL	65.00 ± 0.30 %	72.54 ± 0.50 %	76.69 ± 0.77 %	83.67 ± 0.61 %	87.79 ± 0.63 %	174 µM	51.9 ± 1.16%	57.34 ± 0.55%	61.36 ± 0.49%	67.39 ± 0.49%	73.39 ± 0.6%	17 µg/mL	62.98 ± 0.72 %	DPPH % inhibition ([3]; 125 µg/mL): 67.90 ± 0.96 %; DPPH % inhibition ([3]; 250 µg/mL): 72.91 ± 0.88 %; DPPH % inhibition ([3]; 500 µg/mL): 77.08 ± 0.47 %; DPPH % inhibition ([3]; 1,000 µg/mL): 81.03 ± 0.35 %
C=Cc1ccc(O)cc1OC [Compound 4, 3-methoxy-4-vinylphenol]	65 µg/mL	53.90 ± 0.48 %	57.03 ± 0.48 %	62.90 ± 0.96 %	65.65 ± 1.34 %	69.58 ± 1.12 %	42 µg/mL	57.00 ± 1.15 %	61.67 ± 0.89 %	65.00 ± 0.58 %	72.03 ± 0.23 %	75.33 ± 0.49 %	182 µM	59.8 ± 0.65%	66.7 ± 0.78%	75.7 ± 0.62%	80.76 ± 0.63%	76.7 ± 0.66%	40 µg/mL	58.15 ± 0.22 %	% 5-LOX inhibitions (5-LOX; listed as Comp 4): 84.83 ± 0.62 %; DPPH % inhibition ([3]; 125 µg/mL): 63.36 ± 0.71 %; DPPH % inhibition ([3]; 250 µg/mL): 68.39 ± 0.35 %; DPPH % inhibition ([3]; 500 µg/mL): 73.42 ± 0.12 %; DPPH % inhibition ([3]; 1,000 µg/mL): 77.73 ± 0.03 %
C=Cc1cc(OC)c(O)c(OC)c1 [Compound 5, 2,6-dimethoxy-4-vinylphenol]	35 µg/mL	57.51 ± 0.62 %	62.46 ± 0.47 %	66.68 ± 0.64 %	70.53 ± 0.41 %	76.42 ± 0.46 %	30 µg/mL	60.59 ± 0.30 %	63.08 ± 1.04 %	68.76 ± 0.61 %	74.31 ± 0.58 %	79.49 ± 0.60 %	171 µM	49.9 ± 0.65%	57.2 ± 0.57%	65.5 ± 1.04%	71.3 ± 1.11%	84.83 ± 0.62%	16 µg/mL	60.48 ± 0.23 %	% 5-LOX inhibitions (5-LOX; listed as Comp 5): 76.7 ± 0.66 %; DPPH % inhibition ([3]; 125 µg/mL): 63.99 ± 0.19 %; DPPH % inhibition ([3]; 250 µg/mL): 67.05 ± 0.13 %; DPPH % inhibition ([3]; 500 µg/mL): 71.75 ± 0.21 %; DPPH % inhibition ([3]; 1,000 µg/mL): 75.28 ± 0.42 %
